Laboratory results from patent US20240390487A1, “TLR AGONISTS FOR REDUCING ACTIVATION-INDUCED PD-1 EXPRESSION ON T CELLS AND METHODS OF USE” (WISCONSIN ALUMNI RESEARCH FOUNDATION, priority 2016, published 2024).
Entries after “also recorded” stand apart in the source; their conditions may differ.

System: OT-1 transgenic splenocytes
Experiment: In vitro stimulation of OT-1 splenocytes with peptide antigen in the presence of TLR agonists, surface markers by flow cytometry
Format: cell-based, mice
Parameters: key to 4-1BB / PD-1 / LAG3 / CD160 / CD244.2 / BTLA / VISTA: “+” means increase; “−” means decrease; “=” means no change; “=/+” or “=/−” means the change is there but not significant; “=/+” or “=/−” means the change is there but not significant
Conditions: for 4-1BB / BTLA / CD160 / CD244.2 / LAG3 / PD-1 / VISTA: OT-1 splenocytes, high affinity antigen plus TLR agonist, versus antigen alone; for T cell activation measured by 4-1BB / PD-1 expression on activated T cells / levels of tested checkpoint markers (BTLA, VISTA, CD160, CD244.2): in words; for T cell activation measured by 4-1BB: SIINFEKL plus TLR agonist; for PD-1 expression on activated T cells: SIINFEKL plus TLR agonist versus antigen alone, up to 4 days; for levels of tested checkpoint markers (BTLA, VISTA, CD160, CD244.2): high affinity antigen plus TLR agonist versus no TLR agonist
Protocol: T cell activation was measured by the levels of marker 4-1BB (a/k/a CD137, a member of the TNF receptor superfamily). The level of PD-1 expression was also assessed in these cells (FIG. 1B).
There was no difference in LAG3 expression between the control cells and cells treated with any of the assayed TLR agonists.
OT-1 transgenic splenocytes were treated with high affinity antigen in combination with Pam3CSK4 (TLR1 and 2 agonist), Gardiquimod (TLR7 agonist) or no TLR agonist and the levels of different checkpoint markers or T cell stimulation (measured by 4-1BB, FIG. 5) were assayed. The checkpoint markers BTLA (FIG. 6), VISTA (FIG. 7), CD160 (FIG. 8) and CD244.2 (FIG. 9) were assayed.
TLR stimulation at the time of T-cell activation in vitro affects expression of PD-1. Given that CpG-rich DNA is a TLR9 agonist and Lm is a TLR2 agonist, we questioned whether TLR stimulation with different ligands could similarly affect expression of different T-cell checkpoint inhibitors. […] OT-1 splenocytes were stimulated in vitro with peptides of different affinity for MHC class I (high-affinity SIINFEKL peptide (SEQ ID NO:1, OVA), moderate-affinity SIINTEKL peptide (SEQ ID NO:2, FT), or low-affinity SIINFEKP peptide (SEQ ID NO:7, LP)), alone or in the presence of different TLR ligands (TLR 1/2 (Pam3CSK4), TLR 3 (Poly I:C), TLR 4 (MPLAs), TLR 7 (Gardiquimod), TLR 7/8 (R848), or TLR 9 (ODN1826)). […] Similarly, LAG-3 expression increased by day 3, but was not affected by the presence of different TLR ligands. […] This reduction in PD-1 expression was observed most with the high-affinity SIINFEKL (SEQ ID NO:1) epitope, but also observed following activation with lower affinity epitopes. Given these findings, we evaluated expression of multiple other T-cell checkpoint molecules following T-cell activation in the presence of TLR ligands. […] Cytotoxic T-lymphocyte-associated protein 4 (CTLA-4) expression, however, was increased in the presence of TLR1/2 agonist. Similar results were found activating OT-1 cells with the lower affinity FT (SIINTEKL peptide (SEQ ID NO:2)), LP (SIINFEKP peptide (SEQ ID NO:7), or LY (SIINFEKY, SEQ ID NO:8) epitopes (FIG. 19).
In vitro T-cell stimulation: Spleens were collected from OT-1 mice, processed through a mesh screen, and splenocytes were isolated by centrifugation after red blood cell osmotic lysis with ammonium chloride/[…] lysis buffer (0.15 M NH4Cl, 10 mM KHCO3, 0.1 mM EDTA). Splenocytes were cultured at 2×10^6/mL in RPMI 1640 medium supplemented with L-glutamine, 10% fetal calf serum (FCS), 200 U/mL penicillin/streptomycin, 1% sodium pyruvate, 1% HEPES, 50 μM β-MeOH, and 2 μg/mL of the designated peptide. TLR agonists were all purchased from InvivoGen (San Diego, CA) and added one hour before peptides at the following optimal concentrations based on preliminary studies and previously reported results: 300 ng/ml Pam3CSK4, 10 μg/mL Poly(I:C) HMW, 10 μg/ml MPLAs, 3 μg/ml Gardiquimod, 10 μg/ml R848, 5 μM ODN 1826. At the time points indicated, cells were stained, fixed for 15 min at 4° C. in cytofix (BD Biosciences (BD), San Jose, CA; 554655), and frozen in FCS+10% DMSO. After all time points were collected, cells from all times were thawed, rinsed and resuspended in PBS+3% FCS+1 mM EDTA and analyzed by flow cytometry. Cells were stained for 30 min at 4° C. in a 1:4 dilution of brilliant stain buffer (BD 563794) in PBS+3% FCS+1 mM EDTA. In order to assess co-stimulation, blocking antibodies for CD80 (0.6 μg/mL), CD86 (0.25 μg/mL) or OX40L (0.6 μg/mL) were added 1 hour prior to antigen.

Compound	4-1BB	BTLA	CD160	CD244.2	LAG3	PD-1	VISTA	T cell activation measured by 4-1BB	PD-1 expression on activated T cells	levels of tested checkpoint markers (BTLA, VISTA, CD160, CD244.2)	PD-1 expression on activated T cells (listed as TLR4)	CTLA-4 expression (OT-1 T cells activated with SIINFEKL in the presence of TLR ligand)	PD-1 expression on activated T cells (listed as TLR3)
CCNCc1nc2c(N)nc3ccccc3c2n1CC(C)(C)O [Gardiquimod]	=	=/−	−	=/−	=	−	=	activated	expressed low levels of PD-1; also recorded: significantly reduced	did not affect			
Monophosphoryl Lipid A [MPLAs]	=				=	=			did not significantly reduce		did not lead to PD-1 downregulation		
Pam3CSK4	=	=/−	−	=	=	−	−	activated	expressed low levels of PD-1; also recorded: significantly reduced	did not affect		increased	
Poly(I:C) [PolyI:C]	=				=/+	=/−			did not significantly reduce				did not lead to decreased PD-1 expression
